Laboratory results reported in EP0117302A2, “Phenothiazine derivatives” (THE WELLCOME FOUNDATION LIMITED, priority 1982, dated 1984).
Like-named read-outs stand apart in the source and are kept apart here.

Assays:
[1] = tested on: histamine; assay: In vitro antihistamine activity: histamine concentration-response curves on isolated ileum longitudinal muscle, Schild plot; format: cell-based, guinea-pigs; conditions: guinea-pig ileum longitudinal muscle, one hour incubation with test compound, antagonism of histamine; for pA2: 60 min; for Kb: Cavia porcellus, 1 h, read-out: pA2 (converted)
Experimental: A. In vitro antihistamine activity: The longitudinal muscle was isolated from the intact ileum of guinea-pigs (Hartley, male 250-400g) and placed in an organ bath under 300 mg tension. […] Following washing, the tissues were incubated for one hour with the test compound and then a second histamine concentration-response curve was run. […] Regression of Log (dr-1) on Log [B], where dr is an equiactive response in the presence and absence of antagonist and [B] is the molar concentration of antagonist, allowed an estimate of pA2, i.e. the negative log of the concentration of antagonist which shifts the control histamine concentration response curve 2X to the right.

[2] = tested on: compound 48/80; assay: Inhibition of compound 48/80 induced anaphylactoid reaction; format: in vivo, Wister rats; conditions: Rattus norvegicus, rats, compound administered 2 hrs. prior to test, read-out: ED50 (dose providing 50% protection against death induced by compound 48/80)
Experimental: Non-fasted, Wister rats (180-300g).were dosed with the test compound, (i.p. or p.o.) 2 hours before compound 48/80 challenge. One hour prior to challenge, 5 mg/kg i.p. of propranolol was administered. The anaphylactoid inducing agent, compound 48/80, was given intravenously at 2 mg/kg and the animals were monitored for symptoms of respiratory distress.
Data were analyzed by Probit determinations. the response was quantitated by determining the dose of test compound which protected 50% of the animals from death at a given time point.
Agents which block the effects of compound 48/80 are commonly classified as inhibitors of anaphylactic mediators or inhibitors of the release of anaphylic mediators.

[3] = tested on: histamine; assay: In vivo antihistaminic activity: protection against histamine aerosol challenge; conditions: Cavia porcellus, po, guinea pigs
Experimental: B. In vivo Antihistaminic Activity: Guinea pigs (Hartley, male, 300-350 g) were fasted for 20 hours and then dosed p.o. or i.p. with the test compound. One hour after dosing, on an individual basis, the guinea pigs were placed in a clear plastic chamber which was saturated and continually gassed with 0.25% histamine from an aerosol nebulizer. The guinea pigs were monitored for signs of histamine anaphylaxis (e.g. cough, sneeze, strong abdominal movements, cyanoses or loss of righting). […] ED50's for protection against histamine were calculated by probit analysis. […] Complete protection was defined as no histamine symptoms for six minutes in the aerosol chamber (approximately 10X the collapse time of the control animals).

[4] = Pharmacokinetic studies: relative distribution in brain and plasma; format: in vivo; conditions: rodents, compared with promethazine
[5] = Acute toxicity (approximate LD50); conditions: rat, in vivo, rats

**Q.** With “4 (or 1)-(2-carboxyethyl)-10-(2-dimethylaminopropyl)-phenothiazine [Compound I]” as the compound, how does the pA2 [1] read?
**A.** Its pA2 is 7.2.

**Q.** With “10-(2-dimethylaminopropyl)phenothiazine-4(or 1)-carboxylic acid [Compound G]” as the compound, how does the pA2 [1] read?
**A.** Its pA2 is 6.8.

**Q.** For COc1ccc(CCN2CCC(Nc3nc4ccccc4n3Cc3ccc(F)cc3)CC2)cc1 [Astemizole, reference compound], which ED50 ([2]; ip) is on record?
**A.** Its ED50 is 1.08 mg/kg.

**Q.** For CC(CN1c2ccccc2Sc2ccc(/C=C/C(=O)O)cc21)N(C)C (stereo not drawn) [Compound A, trans-β-[10-(2-Dimethylaminopropyl)phenothiazin-2-yl]acryiic acid], which Kb [1] is on record?
**A.** Its Kb is 6.31 nM.

**Q.** What about the ED50 ([2]; ip) of the same compound?
**A.** The ED50 was 2.64 mg/kg.

**Q.** And the ED50 ([3]; 0.25% histamine aerosol, 1 hour post-dosing, read-out: ED50)?
**A.** The ED50 was 1.7 mg/kg.

**Q.** And the ED50 ([3]; 24 hours protection, read-out: ED50 for 24 hours protection)?
**A.** The ED50 was 11 mg/kg.

**Q.** And the brain penetration [4]?
**A.** Its brain penetration is “do not readily penetrate the brains of rodents”.

**Q.** Which results are given for CC(CN1c2ccccc2Sc2ccc(CC(=O)O)cc21)N(C)C (centres unmarked) [Compound B, 2-[10-(2-Dimethylaminopropyl)phenothiazin-2-yl]acetic acid]?
**A.** Kb [1]: 0.398 nM; ED50 ([2]; ip): 0.89 mg/kg; ED50 ([2]; po): 1.2 mg/kg; ED50 ([3]; 0.25% histamine aerosol, 4 hours post dosing, read-out: ED50): 0.3 mg/kg; LD50 ([5]; ip): ~210 mg/kg; LD50 ([5]; po): > 500 mg/kg; brain penetration [4]: do not readily penetrate the brains of rodents

**Q.** For CC(C(=O)O)c1ccc2c(c1)N(CC(C)N(C)C)c1ccccc1S2 (centres unmarked) [Compound C, 2-[10-(2-Dimethylaminopropyi)phenothiazin-2-yl]propionic acid], which Kb [1] is on record?
**A.** The Kb was 7.94 nM.

**Q.** What about the ED50 ([2]; ip) of the same compound?
**A.** Its ED50 is 1.43 mg/kg.

**Q.** For CC(CN1c2ccccc2Sc2cc(C(=O)O)ccc21)N(C)C (centres unmarked) [Compound D, 10-(2-dimethylaminopropyI)phenothiazine-3-carboxylic acid], which Kb [1] is on record?
**A.** The Kb was 631 nM.

**Q.** What does the source list for CC(CN1c2ccccc2Sc2cc(/C=C/C(=O)O)ccc21)N(C)C (centres unmarked) [Compound E, E-3-(2-carboxyvinyl)-10-(2-dimethylaminopropyl)-phenothiazine]?
**A.** Kb [1]: 631 nM; ED50 ([2]; ip): 3.11 mg/kg

**Q.** Which Kb [1] does the source give for CC(CN1c2ccccc2Sc2cc(CCC(=O)O)ccc21)N(C)C (centres unmarked) [Compound F, 3-(2-carboxyethyl)-10-(2-dimethylaminopropyl)phenothiazine] here?
**A.** The Kb was 6310 nM.

**Q.** For CCOC(=O)Cc1ccc2c(c1)N(CC(C)N(C)C)c1ccc(Cl)cc1S2 (centres unmarked) [Compound J], which Kb [1] is on record?
**A.** Its Kb is 1 nM.

**Q.** With CC(CN1c2ccc(Cl)cc2Sc2ccc(CC(=O)O)cc21)N(C)C (centres unmarked) [Compound K, [7-Chloro-10-(2-dimethylaminopropyl)-2-phenothiazinyl]acetic acid] as the compound, how does the Kb [1] read?
**A.** Its Kb is 1.58 nM.

**Q.** With CCOC(=O)Cc1ccc2c(c1)N(CCN(C)C)c1ccc(C)cc1S2 [Compound L, Ethyl [10-(2-dimethylaminoethyl)-7-methyl-2-phenothiazinyl]acetate] as the compound, how does the Kb [1] read?
**A.** Its Kb is 0.794 nM.

**Q.** For Cc1ccc2c(c1)Sc1ccc(CC(=O)O)cc1N2CCN(C)C [Compound M, [10-(2-Dimethylaminoethyl)-7-methyl-2-phenothiazinyl]acetic acid], which Kb [1] is on record?
**A.** The Kb was 1.26 nM.

**Q.** Which Kb [1] does the source give for CCOC(=O)C(C)(C)c1ccc2c(c1)N(CC(C)N(C)C)c1ccccc1S2 (centres unmarked) [Compound O, Ethyl 2-[10-(2-dimethylaminopropyl)-2-phenothiazinyl]-2-methylpropionate] here?
**A.** Its Kb is 3.16 nM.

**Q.** Which Kb [1] does the source give for CC(CN1c2ccccc2Sc2ccc(C(C)(C)C(=O)O)cc21)N(C)C (centres unmarked) [Compound P] here?
**A.** Its Kb is 1.58 nM.

**Q.** Which Kb [1] does the source give for CN(C)CCCN1c2ccccc2Sc2ccc(C(C)(C)C(=O)O)cc21 [Compound Q, 2-[10(3-dimethylaminopropyl)-2-phenothiazinyl]-2-methylpropionic acid] here?
**A.** Its Kb is 2 nM.

**Q.** With CC(CN1c2ccccc2Sc2ccc(C(=O)O)cc21)N(C)C (centres unmarked) [Compound S, 10-(2-Dimethylaminopropyl)phenothiazin-2-yl-carboxylic acid] as the compound, how does the Kb [1] read?
**A.** Its Kb is 1 nM.

**Q.** With CN1CCC(=C2c3ccccc3CC(=O)c3sccc32)CC1 [Ketotifen, reference compound] as the compound, how does the ED50 ([2]; ip) read?
**A.** Its ED50 is 0.87 mg/kg.

**Q.** For “E-4 (or 1)-(2-carboxyvinyl)-10-(2-dimethylaminopropyl)phenothiazine [Compound H]”, which pA2 [1] is on record?
**A.** The pA2 was 7.8.

**Q.** For “[10-(2-diethylaminoethyl)-7-fluoro-2-phenothiaznyl]acetic acid [Compound N]”, which pA2 [1] is on record?
**A.** The pA2 was 8.6.
